Tests used:
ETB receptors = target: T1, ETB receptors (Cavia porcellus, UniProt H0VTF3); experiment: ETB receptor binding assay ([125I]-RZ3, guinea pig cerebellar membranes); settings: 25 pM [125I]-RZ3, 25° C., 30 min
T1 construct: Guinea pig cerebella were homogenized in a Potter-Elvejhem homogenizer; from tissue; host or cells: guinea pig cerebellum membranes
T1 sequence (H0VTF3 27-415): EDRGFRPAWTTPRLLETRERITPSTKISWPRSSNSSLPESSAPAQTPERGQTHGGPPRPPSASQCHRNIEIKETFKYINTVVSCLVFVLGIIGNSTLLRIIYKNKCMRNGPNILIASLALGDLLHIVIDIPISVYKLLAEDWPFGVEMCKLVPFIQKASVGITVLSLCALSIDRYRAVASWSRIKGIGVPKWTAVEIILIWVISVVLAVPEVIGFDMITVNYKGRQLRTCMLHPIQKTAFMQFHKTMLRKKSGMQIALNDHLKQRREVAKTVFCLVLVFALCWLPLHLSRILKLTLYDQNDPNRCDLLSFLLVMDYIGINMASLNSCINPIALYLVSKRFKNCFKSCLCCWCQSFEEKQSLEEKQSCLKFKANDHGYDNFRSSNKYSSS
Protocol: Guinea pig cerebella were homogenized in a Potter-Elvejhem homogenizer and [lacuna] obtained by differential centrifugation at 1000×g for 10 min and repeated centrifugation of the supernatant at 20,000×g for 10 min.

[1] = target: T2, Cloned human ETA receptor (Homo sapiens, UniProt P25101); experiment: ETA receptor binding assay ([125I]-ET1, membranes of CHO cells); settings: 25 pM [125I]-ET1, 25° C., 30 min
T2 construct: expressed in transfected cells; host or cells: CHO cells
T2 sequence (P25101 21-427): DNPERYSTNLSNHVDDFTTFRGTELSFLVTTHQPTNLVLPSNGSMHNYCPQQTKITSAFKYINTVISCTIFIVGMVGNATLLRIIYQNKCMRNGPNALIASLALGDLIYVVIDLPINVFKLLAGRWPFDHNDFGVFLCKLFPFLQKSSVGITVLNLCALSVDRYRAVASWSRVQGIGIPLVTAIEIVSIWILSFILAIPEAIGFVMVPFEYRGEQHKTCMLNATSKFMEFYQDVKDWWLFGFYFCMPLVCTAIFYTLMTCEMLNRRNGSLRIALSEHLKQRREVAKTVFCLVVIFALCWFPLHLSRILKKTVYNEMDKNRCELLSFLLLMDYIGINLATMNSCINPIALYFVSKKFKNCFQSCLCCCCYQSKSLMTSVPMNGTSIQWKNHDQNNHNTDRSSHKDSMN
Protocol: Cloned human ETA receptor-expressing CHO cells and guinea pig cerebellar membranes with >60% ETB compared with ETA receptors were used for binding studies.
The ETA receptor-expressing CHO cells were grown in F12 medium containing 10% fetal calf serum, 1% glutamine, 100 U/ml penicillin and 0.2% streptomycin (Gibco BRL, Gaithersburg, Md., USA).
After 48 h, the cells were washed with PBS and incubated with 0.05% trypsin-containing PBS for 5 min. Neutralization was then carried out with F12 medium, and the cells were collected by centrifugation at 300×g. To lyze lyse the cells, the pellet was briefly washed with lysis buffer (5 mM Tris-IICl, pII 7.4 with 10% glycerol) and then incubated at a concentration of 10^7 cells/ml of lysis buffer at 4° C. for 30 min. The membranes were centrifuged at 20,000×g for 10 min, and the pellet was stored in liquid nitrogen.
For the ETA and ETB receptor binding assay, the membranes were suspended in incubation buffer (50 mM Tris-HCl, pH 7.4 with 5 mM MnCl2, 40 μg/ml bacitracin and 0.2% BSA) at a concentration of 50 μg of protein per assay mixture and incubated with 25 pM [125I] [^125I]-ET1 (ETA receptor assay) or 25 pM [125I] [^125I]-RZ3 (ETB receptor assay) in the presence and absence of test substance at 25° C. The nonspecific binding was determined using 10^--7 10^−7 M ET1. After 30 min, the free and bound radioligand were separated by filtration through GF/B glass fiber filters (Whatman, England) on a Skatron cell collector (Skatron, Lier, Norway) and the filters were washed with ice-cold Tris-HCl buffer, pH 7.4 with 0.2% BSA. The radioactivity collected on the filters was quantified using a Packard 2200 CA liquid scintillation counter.

Ki (ETB receptors) [µM] | Ki [1] [µM] | melting point [°C] | Compound
2 | 0.023 | – | COc1cc(OC)nc(OC(C(=O)O)C(OCC2CC2)(c2ccccc2)c2ccccc2)n1 (stereo not drawn) [Compound I-26]
– | 0.001 | – | COc1nc(OC(C(=O)O)C(OC)(c2ccccc2)c2ccccc2)nc2c1CCO2 (stereo not drawn) [Compound I-87]
– | – | 143 to 147 | COc1nc(OC(C(=O)OCc2ccccc2)C(OC)(c2ccccc2)c2ccccc2)nc2c1CCC2 (stereo not drawn) [Example 12, Benzyl 3-methoxy-2-(4-methoxy-6,7-dihydro-5H-cyclopentapyrimidin-2-yloxy)-3,3-diphenylpropionate]
1.1 | 0.209 | – | COc1cc(OC)nc(OC(C(=O)O)C(OCCCC(C)C)(c2ccccc2)c2ccccc2)n1 (stereo not drawn) [Compound I-23]
9.3 | 0.086 | – | COc1nc(OC(C(=O)O)C(OC)(c2ccccc2)c2ccccc2)nc2c1ccn2C (stereo not drawn) [I.89]
2.5 | – | – | CCOC(c1ccccc1)(c1ccccc1)C(Oc1nc(OC)cc(OC)n1)C(=O)O (stereo not drawn) [Compound I-4]
0.16 | 0.012 | – | COc1cc(OC)nc(OC(C(=O)O)C(OC(C)C)(c2ccccc2)c2ccccc2)n1 (stereo not drawn) [Compound I-5]
1.7 | – | – | CCCOC(c1ccccc1)(c1ccccc1)C(Oc1nc(OC)cc(OC)n1)C(=O)O (stereo not drawn) [Compound I-12]
0.056 | 0.0006 | – | COc1nc(OC(C(=O)O)C(OC)(c2ccccc2)c2ccccc2)nc2c1CCC2 (stereo not drawn) [Compound I-96]
0.034 | – | – | COc1cc(OC)nc(OC(C(=O)O)C(OC)(c2ccccc2)c2ccccc2)n1 (stereo not drawn) [Compound I-2]
2.3 | 0.028 | 96 to 98 | COc1cc(OC)nc(OC(C(=O)O)C2(OC)c3ccccc3-c3ccccc32)n1 (stereo not drawn) [II-1]
– | 0.0004 | – | COc1cc(C)nc(OC(C(=O)O)C(OC)(c2ccccc2)c2ccccc2)n1 (stereo not drawn) [Compound I-103]
1.5 | 0.15 | – | COc1cc(OC)nc(OC(C(=O)O)C(OCc2ccccc2)(c2ccccc2)c2ccccc2)n1 (stereo not drawn) [Compound I-47]
0.485 | 0.003 | – | COc1cc(OC)nc(OC(C(=O)O)C(SC)(c2ccccc2)c2ccccc2)n1 (stereo not drawn) [Compound I-107]
7.3 | 0.107 | – | COc1cc(OC)nc(OC(C(=O)O)C2(OC)c3ccccc3CCc3ccccc32)n1 (stereo not drawn) [II-3]

Compound | Ki (ETB receptors) [µM] | Ki [1] [µM] | melting point [°C]
COc1cc(OC)nc(OC(C(=O)O)C(Oc2ccccc2)(c2ccccc2)c2ccccc2)n1 (stereo not drawn) [Compound I-29] | 0.18 | 0.086 | –

From USRE42462E1, “Carboxylic acid derivatives, their preparation and use” (Abbott GmbH & Co. KG, priority 1995, dated 2011)
